Experiment [1] concerns MOLM13 cells. Nature of the experiment: Growth inhibition of CDK9-positive cell line MOLM13 in vitro (CCK8/MTT assay). The format is cell-based, human. The conditions noted are these: Homo sapiens. (Formazan colour is commonly taken as a measure of viable cells.)
The test system of experiment [2] is 8305C. Nature of the experiment: Growth inhibition of CDK9-positive tumor cell line in vitro. In kind it is cell-based. Particulars: Human thyroid cancer, read-out: Inhibitory activity (IC50) on growth in vitro, 8305C. Here is the method:
(§1) Measurement of the Inhibitory Activity of the Present Compound on the Growth of Various Types of CDK9-Positive Tumor Cell Lines In Vitro
(§2) The inventors selected representative CDK9-positive tumor cell lines for further determination of the compound activity. All cell lines used came from ATCC, JCRB, DSMZ and Chinese Academy of Sciences Cell Bank (ZK). Cell culture condition and method were based on the requirements of each cell line. No more than 3 passages were carried out in each culture in vitro. Monoclonal purification and STR identification of the cell line were conducted if necessary.

The test system of experiment [3] is BT-549. Described as above. In kind it is cell-based. Particulars: Human breast cancer, read-out: Inhibitory activity (IC50) on growth in vitro, BT-549. The procedure: as §1, §2
Experiment [4] deals with CA Ski. The description is as above. The format is cell-based. The conditions noted are these: Human cervical cancer, read-out: Inhibitory activity (IC50) on growth in vitro, CA Ski. The procedure: as §1, §2
For experiment [5], the system named is HCC1954. The description is as above. The format is cell-based. The conditions noted are these: Human breast cancer, read-out: Inhibitory activity (IC50) on growth in vitro, HCC1954. The procedure:
as §1, §2

The subject of experiment [6] is JIMT-1. The description is as above. The format is cell-based. Particulars: Human breast cancer, read-out: Inhibitory activity (IC50) on growth in vitro, JIMT-1. The procedure:
as §1, §2

The test system of experiment [7] is KG-1. Described as above. The format is cell-based. The conditions noted are these: Human acute myeloid leukemia, read-out: Inhibitory activity (IC50) on growth in vitro, KG-1. Here is the method:
as §1, §2

Experiment [8] deals with KYSE70. The experiment is described as above. In kind it is cell-based. Particulars: KYSE-70, Human esophageal cancer, read-out: Inhibitory activity (IC50) on growth in vitro, KYSE70. Here is the method: as §1, §2
Experiment [9] relates to LN229. Described as above. In kind it is cell-based. Particulars: LN-229, Human glioma, read-out: Inhibitory activity (IC50) on growth in vitro, LN229. Here is the method: as §1, §2
In experiment [10] the test system is MFM-223. Described as above. In kind it is cell-based. Particulars: Human breast cancer, read-out: Inhibitory activity (IC50) on growth in vitro, MFM-223. The procedure:
as §1, §2

In experiment [11] the test system is MX-1. The description is as above. In kind it is cell-based. Particulars: MX1, Human breast cancer, read-out: Inhibitory activity (IC50) on growth in vitro, MX-1. The procedure:
as §1, §2

For experiment [12], the system named is NCI-H1975. Described as above. Particulars: Human lung cancer, read-out: Inhibitory activity (IC50) on growth in vitro, NCI-H1975. The format is cell-based. The procedure: as §1, §2
Experiment [13] deals with SK-BR-3. The experiment is described as above. The format is cell-based. Particulars: Human breast cancer, read-out: Inhibitory activity (IC50) on growth in vitro, SK-BR-3. The procedure: as §1, §2
For experiment [14], the system named is MDA-MB-231. Described as above. The format is cell-based. The conditions noted are these: Human breast cancer, read-out: Inhibitory activity (IC50) on growth in vitro, MDA-MB-231. The procedure: as §1, §2
In experiment [15] the test system is MDA-MB-453. Described as above. Particulars: Human breast cancer, read-out: Inhibitory activity (IC50) on growth in vitro, MDA-MB-453. The format is cell-based. The procedure:
as §1, §2

The subject of experiment [16] is A549. The experiment is described as above. The format is cell-based, Human. Here is the method: as §1, §2
Experiment [17] has as its system AN3-CA. The description is as above. The conditions noted are these: Human endometrial cancer, read-out: Inhibitory activity (IC50) on growth in vitro, AN3-CA. In kind it is cell-based. The source says:
Test Example 3. Measurement of the Inhibitory Activity of the Present Compound on the Growth of Various Types of CDK9-Positive Tumor Cell Lines In Vitro
Tumor cell line is an effective cell model for studying the inhibitory activity of a drug on tumor growth in vitro. The inventors selected representative CDK9-positive tumor cell lines for further determination of the compound activity. All cell lines used came from ATCC, JCRB, DSMZ and Chinese Academy of Sciences Cell Bank (ZK). Cell culture condition and method were based on the requirements of each cell line. No more than 3 passages were carried out in each culture in vitro. Monoclonal purification and STR identification of the cell line were conducted if necessary.
Drug treatment, MTT assay and IC50 calculation were performed in accordance with Test Example 1.

Where [18] appears, read: MOLM-13, MOLM13 cells, cultured 3 to 6 days, CCK8, read-out: IC50 of the compound for inhibiting cell growth, MOLM13 cells.
The mark [19] stands for this setting: Human lung cancer, A549, read-out: Inhibitory activity (IC50) on growth in vitro, A549.

As usually defined, the IC50 is the concentration needed to halve the response being measured.

Like-named read-outs stand apart in the source and are kept apart here.

For the compound `Cc1cc(Nc2ncc(Cl)c(-n3cc(C(N)=O)c4ccccc43)n2)ccc1N1CCN(C(C)C)CC1` [Compound 60, 1-{5-chloro-2-[4-(4-isopropyl-piperazin-1-yl)-3-methyl-phenylamino]-pyrimidin-4-yl}-1H-indole-3-carboxamide], the IC50 in experiment [1] (setting [18]) is less than 1 nM; in [2], 10 to 100 nM; in [3], 10 to 100 nM; in [4] it was 10 to 100 nM; in [5], 1 to 10 nM; in experiment [6], 10 to 100 nM. In addition, the IC50 in experiment [7] fell in the range of 10 to 100 nM; in experiment [8], 100 to 1000 nM; in experiment [9] it was 100 to 1000 nM; in experiment [10], 10 to 100 nM; in [11], 1 to 10 nM; in experiment [12], 100 to 1000 nM. Besides, the half-inhibitory concentration (IC50) in experiment [13] was 1 to 10 nM.

Turning to `CC(C)N1CCN(c2cccc(Nc3ncc(F)c(-n4cc(C(N)=O)c5ccccc54)n3)c2)CC1` [Compound 144, 1-{5-fluoro-2-[3-(4-isopropyl-piperazin-1-yl)-phenylamino]-pyrimidin-4-yl}-1H-indole-3-carboxamide], the IC50 in experiment [1] (setting [18]), in experiment [2], in experiment [3], in [4], in experiment [5] and in [6] was less than 1 nM each time. Besides, the IC50 was less than 1 nM in [7]; 1 to 10 nM in [8]; less than 1 nM in experiment [9]; less than 1 nM in experiment [14]; less than 1 nM in [15]; less than 1 nM in [10]. Also, the IC50 in experiment [11] is less than 1 nM; in experiment [12] it was 1 to 10 nM; in [13], less than 1 nM; in experiment [16] (setting [19]), 1 to 10 nM; in experiment [17] it was less than 1 nM.

In the case of `CCN1CCN(c2cccc(Nc3ncc(F)c(-n4cc(C(N)=O)c5cc(OC)ccc54)n3)c2)CC1` [Compound 152, 1-{2-[3-(4-ethyl-piperazin-1-yl)-phenylamino]-5-fluoro-pyrimidin-4-yl}-5-methoxy-1H-indole-3-carboxamide], the IC50 in experiment [1] (MOLM-13, read-out: IC50 of the compound for inhibiting cell growth, MOLM13 cells) is less than 1 nM; in experiment [2] it was 1 to 10 nM; in experiment [3] it was less than 1 nM; in experiment [4] it was less than 1 nM; in [5], less than 1 nM; in experiment [6], less than 1 nM. Also, the 50% inhibitory concentration (IC50) in [7] was 1 to 10 nM; in experiment [8], 1 to 10 nM; in experiment [9] it was 1 to 10 nM; in experiment [14], less than 1 nM; in experiment [15], less than 1 nM; in experiment [10], less than 1 nM. For the same compound, the half-inhibitory concentration (IC50) was less than 1 nM in [11]; 1 to 10 nM in [12]; less than 1 nM in [13]; 1 to 10 nM in experiment [16] (Homo sapiens, A549, read-out: Inhibitory activity (IC50) on growth in vitro, A549); less than 1 nM in experiment [17].

Take `NC(=O)c1cn(-c2nc(Nc3cccc(N4CCN(C5CCOCC5)CC4)c3)ncc2F)c2ccccc12` [Compound 140, 1-(5-fluoro-2-{3-[4-(tetrahydro-pyran-4-yl)-piperazin-1-yl]-phenylamino}-pyrimidin-4-yl)-1H-indole-3-carboxamide]: the IC50 in experiment [1] (setting [18]), in [2], in experiment [3], in experiment [4], in experiment [5] and in experiment [6] was less than 1 nM throughout. Further, the half-maximal inhibitory concentration (IC50) in experiment [7] was less than 1 nM; in [8] it was 1 to 10 nM; in experiment [9], 1 to 10 nM; in experiment [14], less than 1 nM; in experiment [15], less than 1 nM; in experiment [10], less than 1 nM. In addition, the IC50 in experiment [11] is less than 1 nM; in experiment [12], 1 to 10 nM; in [13], less than 1 nM; in [16] (setting [19]), 1 to 10 nM; in experiment [17], less than 1 nM.

`CCN1CCN(c2cccc(Nc3ncc(F)c(-n4cc(C(N)=O)c5cc(F)ccc54)n3)c2)CC1` [Compound 161, 1-{2-[3-(4-ethyl-piperazin-1-yl)-phenylamino]-5-fluoro-pyrimidin-4-yl}-5-fluoro-1H-indole-3-carboxamide]: the half-maximal inhibitory concentration (IC50) in [1] (setting [18]) was less than 1 nM; in [2], 1 to 10 nM; in experiment [3], less than 1 nM; in experiment [4], less than 1 nM; in [5], less than 1 nM; in [6], less than 1 nM. Moreover, the IC50 was 1 to 10 nM in experiment [7]; 1 to 10 nM in [8]; 1 to 10 nM in experiment [9]; less than 1 nM in experiment [14]; less than 1 nM in experiment [15]; less than 1 nM in experiment [10]. Further, the IC50 in experiment [11] was less than 1 nM; in experiment [12], 1 to 10 nM; in [13], less than 1 nM; in experiment [16] (setting [19]), 1 to 10 nM.

The values above are taken from US20210101881A1 (Ancureall Pharmaceutical (Shanghai) Co., Ltd., priority 2018, published 2021).
